In paper PMC3940083 (International Journal for Parasitology: Drugs and Drug …, 2013):
One block for each molecule: values may come before it.

How the values were obtained:
Assay type in all cases: biochemical
[1] = biological target: T1, PfAdoMetDC (S-adenosyl-L-methionine decarboxylase) (Plasmodium falciparum, UniProt Q8IJ77); assay: radiolabeled CO2 release assay, % inhibition at […]; details: read-out: % inhibition at 1 μM
T1 sequence (Q8IJ77 1-72 limits assumed): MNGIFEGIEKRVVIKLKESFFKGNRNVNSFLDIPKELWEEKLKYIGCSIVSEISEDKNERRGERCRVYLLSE
T1 sequence (Q8IJ77 73-529 limits assumed): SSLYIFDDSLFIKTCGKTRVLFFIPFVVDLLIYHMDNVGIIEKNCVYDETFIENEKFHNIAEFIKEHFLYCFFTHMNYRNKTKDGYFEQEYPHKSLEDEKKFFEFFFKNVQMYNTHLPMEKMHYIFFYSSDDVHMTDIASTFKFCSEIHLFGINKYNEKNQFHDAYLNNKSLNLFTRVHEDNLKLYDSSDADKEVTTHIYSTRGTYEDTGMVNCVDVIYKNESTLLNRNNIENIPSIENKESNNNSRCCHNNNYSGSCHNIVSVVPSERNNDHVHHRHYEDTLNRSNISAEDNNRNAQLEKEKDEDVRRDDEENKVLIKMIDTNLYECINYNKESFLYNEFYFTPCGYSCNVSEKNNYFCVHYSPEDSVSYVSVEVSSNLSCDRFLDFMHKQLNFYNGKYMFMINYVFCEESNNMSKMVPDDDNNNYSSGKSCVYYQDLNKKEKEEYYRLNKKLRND

[2] = biological target: T2, PfAdoMetDC/ODC (S-adenosyl-L-methionine decarboxylase, AdoMetDC domain) (Plasmodium falciparum, UniProt Q8IJ77); details: read-out: Ki
T2 sequence (Q8IJ77 1-72): T1 sequence (Q8IJ77 1-72 limits assumed)
T2 sequence (Q8IJ77 73-1434): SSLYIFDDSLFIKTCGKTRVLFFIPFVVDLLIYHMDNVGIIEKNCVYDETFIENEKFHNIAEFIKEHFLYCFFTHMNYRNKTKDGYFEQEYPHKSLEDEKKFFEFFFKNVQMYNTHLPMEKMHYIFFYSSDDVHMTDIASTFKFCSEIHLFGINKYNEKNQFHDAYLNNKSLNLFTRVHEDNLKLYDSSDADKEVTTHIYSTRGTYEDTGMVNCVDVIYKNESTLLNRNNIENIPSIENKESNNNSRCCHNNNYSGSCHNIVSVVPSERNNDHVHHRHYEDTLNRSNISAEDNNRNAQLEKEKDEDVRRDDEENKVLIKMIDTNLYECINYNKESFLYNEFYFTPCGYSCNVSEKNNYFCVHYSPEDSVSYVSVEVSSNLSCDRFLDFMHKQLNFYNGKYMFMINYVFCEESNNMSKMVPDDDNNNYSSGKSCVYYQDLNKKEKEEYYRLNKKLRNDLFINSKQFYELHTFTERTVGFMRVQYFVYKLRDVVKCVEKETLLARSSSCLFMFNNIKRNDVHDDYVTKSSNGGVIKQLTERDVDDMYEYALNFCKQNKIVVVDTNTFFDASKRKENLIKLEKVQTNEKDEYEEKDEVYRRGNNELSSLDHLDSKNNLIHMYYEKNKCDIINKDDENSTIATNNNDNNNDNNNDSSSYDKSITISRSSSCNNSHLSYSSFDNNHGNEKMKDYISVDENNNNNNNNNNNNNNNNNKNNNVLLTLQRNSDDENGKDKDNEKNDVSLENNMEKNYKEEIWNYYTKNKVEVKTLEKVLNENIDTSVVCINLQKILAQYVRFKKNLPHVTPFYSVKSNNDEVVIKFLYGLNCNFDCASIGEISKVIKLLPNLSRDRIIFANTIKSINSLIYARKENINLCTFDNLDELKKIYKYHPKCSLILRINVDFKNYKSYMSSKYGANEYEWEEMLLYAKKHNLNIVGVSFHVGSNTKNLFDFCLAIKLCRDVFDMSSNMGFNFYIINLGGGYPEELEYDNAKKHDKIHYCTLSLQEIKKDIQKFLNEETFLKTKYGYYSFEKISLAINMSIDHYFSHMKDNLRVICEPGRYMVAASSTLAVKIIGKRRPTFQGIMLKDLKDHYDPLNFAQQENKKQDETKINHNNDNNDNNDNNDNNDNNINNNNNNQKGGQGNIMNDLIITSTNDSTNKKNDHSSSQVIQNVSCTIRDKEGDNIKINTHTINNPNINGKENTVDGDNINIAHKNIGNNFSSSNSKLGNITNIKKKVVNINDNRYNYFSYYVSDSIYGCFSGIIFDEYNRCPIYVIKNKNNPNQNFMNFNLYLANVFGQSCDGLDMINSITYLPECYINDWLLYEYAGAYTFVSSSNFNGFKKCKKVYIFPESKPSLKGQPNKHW

[3] = biological target: T1, PfAdoMetDC (S-adenosyl-L-methionine decarboxylase); details: read-out: Ki

- inhibition at 1 µM [1]: 57%
SMILES: CN(C/C=C\CN)C[C@H]1O[C@@H](n2cnc3c(N)ncnc32)[C@@](O)(F)[C@@H]1O [Genz-644043, 2′-fluoro-5′-{[(Z)-4-amino-2-butenyl]methylamino}-5′-deoxyadenosine]

- KI (inactivation) [2]: 180 ± 20 nM
SMILES: Cc1nc2c(N)ncnc2n1[C@@H]1O[C@H](CN(C)C/C=C\CN)[C@@H](O)[C@H]1O [Genz-644131, 8-methyl-5′-{[(Z)-4-aminobut-2-enyl]methylamino}-5′-deoxyadenosine]

- KI (inactivation) [3]: 220 ± 90 nM
SMILES: CN(C/C=C\CN)C[C@H]1O[C@@H](n2cnc3c(N)ncnc32)[C@H](O)[C@@H]1O [MDL73811, 5′-{[(Z)-4-amino-2-butenyl]methylamino}-5′-deoxyadenosine]
